Data taken from patent EP1320377B1, “HLA BINDING PEPTIDES AND THEIR USES” (Epimmune Inc., priority 2000, dated 2011).

Target: B*0702 (Homo sapiens, UniProt P01889)
Assay: Class I molecular binding assay (peptide binding to purified HLA class I molecule)
Settings: binding value of the peptide for HLA allele B*0702; kind of value and unit not given

## SPALNKMFBQI [Peptide 34.0397]
  B*0702: 0.1800
